Consider five molecules from patent US20240253988A1, “PROCESS FOR THE PRODUCTION OF HYDROGEN PEROXIDE” (ARKEMA FRANCE, priority 2021, published 2024).

A short description of series [1]: Flash point, closed-cup apparatus ASTM-D3278. It is filed as physicochemical. How it is done:
According to preferred embodiments, the organic solvent according to the present invention may have a flash point higher than 60° C., preferably higher than 62.5° C. and more preferably higher than 65° C. Flash point can be determined by closed-cup apparatus according to ASTM-D3278.
Flash point can be determined by closed-cup apparatus according to ASTM-D3278.

A short description of series [2]: Vapor pressure, ebulliometry ASTM-E1719. Format: physicochemical. How it is done: Furthermore, the solvent of formula (I) may have a vapor pressure equal to or lower than 450 Pa, preferably equal to or lower than 400 Pa, and more preferably equal to or lower 350 Pa at 20° C. For example, the solvent of formula (I) may have a vapor pressure equal to or lower than 450 Pa, or equal to or lower than 400 Pa, or equal to or lower than 350 Pa, or equal to or lower than 300 Pa, or equal to or lower than 250 Pa, or equal to or lower than 200 Pa, or equal to or lower than 250 Pa, or equal to or lower than 200 Pa, or equal to or lower than 150 Pa, or equal to or lower than 100 Pa, at 20° C. Vapor pressure can be determined by ebulliometry according to ASTM-E1719.
Vapor pressure can be determined by ebulliometry according to ASTM-E1719.

Series [3] is described as follows: Specific gravity, hydrometer ASTM-D891. Format: physicochemical. The text has this: The organic solvent according to the present invention may have a specific gravity equal to or lower than 0.95, and preferably equal to or lower than 0.94. According to preferred embodiments, the organic solvent according to the present invention may have a specific gravity from 0.89 to 0.95, and preferably from 0.90 to 0.94. Specific gravity can be determined by means of a hydrometer according to ASTM-D891.
Specific gravity can be determined by means of a hydrometer according to ASTMD891.

The nature of series [4]: Water solubility, coulometric Karl Fischer titration ASTM-D6304. It is filed as physicochemical. How it is done: According to some preferred embodiments, the organic solvent is not soluble (or essentially not soluble) in water, and preferably has a water solubility equal to or lower than 200 mg/kg, preferably equal to or lower than 190 mg/kg, and more preferably equal to or lower than […]. Water solubility can be determined by coulometric Karl Fischer titration according to ASTM-D6304.
Water solubility can be determined by coulometric Karl Fischer titration according to ASTM-D6304.

Series [5] is classed as physicochemical. How it is done:
The solubility of 2-ethylanthraquinone (2-EAQ) was measured in four different solvents. Solvents A to C are according to the invention, while solvent D is a comparative solvent: • Solvent A: 1-ethyl-4-methoxybenzene • Solvent B: 2,6-dimethylanisole • Solvent C: phenylpropylether • Solvent D: 1,3,5-trimethylbenzene
Solubilities were determined by equilibrating the 2-ethylanthraquinone with the solvent in a glass flask shaken in a carefully temperature controlled atmosphere. Analysis of the samples was done by liquid chromatography. Reference mixtures were prepared for calibration.
The solubility is measured at a temperature of 20° C.

For `COc1ccccc1` [Anisole (*), Anisole, reference compound], the Flashpoint in series [1] was 49-52 °C. In series [2], the “Vapor Pressure” value came to 490 Pa. Also, the Specific gravity in series [3] turned out to be 0.995. In addition, the Water solubility in series [4] worked out at 1728 mg/kg.

`CCc1ccc(OC)cc1` [Solvent A, 1-ethyl-4-methoxybenzene]: the 2-EAQ solubility in series [5] is reported as 229 g/kg of solvent. Also, in series [1], the Flashpoint was 68-72 °C. Moreover, the “Vapor Pressure” value in series [2] is 67 Pa. The same molecule returned a Specific gravity in series [3] of 0.944. Moreover, in series [4], the Water solubility worked out at 90 mg/kg.

`COc1c(C)cccc1C` [Solvent B, 2,6-dimethylanisole]: in series [5], the 2-EAQ solubility is reported as 226 g/kg of solvent. The Flashpoint in series [1] is 61-67 °C. For the same molecule, the “Vapor Pressure” value in series [2] was determined as 124 Pa. Moreover, the Specific gravity in series [3] is 0.943. Moreover, the Water solubility in series [4] is given as 114 mg/kg.

As for `CCCOc1ccccc1` [Solvent C, phenylpropylether], the 2-EAQ solubility in series [5] is 229 g/kg of solvent. Also, the Flashpoint in series [1] was 64-65 °C. Also, the “Vapor Pressure” value in series [2] is given as 60 Pa. The same molecule came in with a Specific gravity in series [3] of 0.946. For the same molecule, in series [4], the Water solubility amounted to 141 mg/kg.

Regarding `Cc1cc(C)cc(C)c1` [Solvent D, 1,3,5-trimethylbenzene, reference compound], the 2-EAQ solubility in series [5] is on record as 210 g/kg of solvent.
